Laboratory results as given in US20260102472A1, “SEMAGLUTIDE IN MEDICAL THERAPY” (Novo Nordisk A/S, priority 2023, published 2026).

System: human subjects with obesity-related heart failure with preserved ejection fraction, and type 2 diabetes
Assay: Randomised, double-blind, placebo-controlled clinical trial of semaglutide in obesity-related HFpEF and type 2 diabetes (Example 2)
Assay type: in vivo
Conditions: for Time to first HF event from randomisation leading to either hospitalisation or an urgent visit, Hazard ratio: Semaglutide 2.4 mg/placebo
Source text: The Kansas City Cardiomyopathy Questionnaire (KCCQ) is a disease-specific health status instrument composed of 23 items that quantify the domains of physical limitation, symptoms, self-efficacy, social limitation, and health-related quality of life limitation from heart failure (available via cvoutcomes.org). The questions of the KCCQ are as published in the appendix of Green et al., JACC 2000; 35 (5): 1245-55:
The Kansas City Cardiomyopathy Questionnaire clinical summary score (KCCQ-CSS) is used for interpretation of the KCCQ and scores range from 0 to 100 where higher scores indicate better function. KCCQ-CSS is calculated as the mean of the available summary scores Physical Limitation Score and Total Symptom Score from the KCCQ. […] “Total Symptom Score” is calculated as the mean of the available summary scores Symptom Frequency Score and Symptom Burden Score. “Symptom Frequency Score” is calculated, if answer to at least two of Questions 3, 5, 7 and 9 are not missing, as 100*(mean of S3, S5, S7 and S9 answered), where S3=[(Question 3)−1]/4, S5=[(Question 5)−1]/6, S7=[(Question 7)−1]/6, and S9=[(Question 9)−1]/4; answers to Question 3 are scored as follows: Every morning=1, 3 or more times a week but not every day=2, 1-2 times a week=3, Less than once a week=4, Never over the past 2 weeks=5; answers to Questions 5 and 7 are scored as follows: All of the time=1, Several times a day=2, At least once a day=3, 3 or more times a week but not every day=4, 1-2 times a week=5, Less than once a week=6, or Never over the past 2 weeks=7; and answers to Question 9 are scored as follows: Every night=1, 3 or more times a week but not every day=2, 1-2 times a week=3, Less than once a week=4, or Never over the past 2 weeks=5. “Symptom Burden Score” is calculated, if answer to at least one of Questions 4, 6 and 8 is not missing, as 100*[(mean of Questions 4, 6 and 8 answered)−1]/4 where answers are scored as follows: Extremely bothersome=1, Quite a bit bothersome=2, Moderately bothersome=3, Slightly bothersome=4, Not at all bothersome=5, or I've had no swelling/fatigue/shortness of breath=5. The term “mean of questions answered” as used herein refers to that for a scale with n in questions where the subject must answer m to score the scale, but the subject answers only n-i, where n-i>=m, then the mean of those questions is calculated as (sum of answers to those n-i questions)/(n-i).
The six minute walk test (6MWT) is a determination of the distance a subject is able to walk over a period of six minutes where the subject traverses, at its own pace and resting as needed, back and forth along a marked walkway of 20 meters with the goal of walking as far as possible without running. The distance obtained from 6MWT is referred to as the six minute walk distance (6MWD). The 6MWT is a direct and timed measure of walking ability, which is technically simple and reproducible.
Heart failure exists in different degrees of severity. The most commonly used classification system of heart failure is the New York Heart Association Functional Classification (also referred to as “NYHA”). NYHA categorises subjects in one of four classes I-IV (Table A), based on their degree of limitation during physical activity, and optionally an additional subgroup A-D based on objective assessments, for further details see The Criteria Committee of the New York Heart Association. Nomenclature and Criteria for Diagnosis of Diseases of the Heart and Great Vessels. 9th ed. Boston, Mass: Little, Brown & Co; 1994:253-256.
A randomised, double-blind, international multicentre, placebo-controlled clinical trial with semaglutide was carried out with 616 human subjects with obesity-related heart failure with preserved ejection fraction, and type 2 diabetes. […]

[1] = pair-wise comparisons vs. placebo, 2.4 mg, type 2 diabetes
[2] = week 0, 2.4 mg once weekly, type 2 diabetes
[3] = week 20, 2.4 mg once weekly, type 2 diabetes
[4] = week 36, 2.4 mg once weekly, type 2 diabetes
[5] = week 52, 2.4 mg once weekly vs. placebo, type 2 diabetes
[6] = week 52, 2.4 mg once weekly vs. placebo, type 2 diabetes, listed as semaglutide
[7] = week 52, 2.4 mg once weekly, type 2 diabetes
[8] = week 52, 2.4 mg once weekly, type 2 diabetes, ANCOVA estimate

N-epsilon26-[2-(2-{2-[2-(2-{2-[(S)-4-Carboxy-4-(17-carboxyheptadecanoyl-amino) butyrylamino]ethoxy}ethoxy) acetylamino]ethoxy}ethoxy) acetyl] [Aib8,Arg34] GLP-1-(7-37) [Semaglutide]
Inflammation (HFpEF, obesity and type 2 diabetes, no data given): reduced inflammation
Time to first HF event from randomisation leading to either hospitalisation or an urgent visit, Hazard ratio (type 2 diabetes): 0.40
Time to first HF event from randomisation leading to either hospitalisation or an urgent visit, Hazard ratio (type 2 diabetes, listed as semaglutide): risk of experiencing a heart failure event was less
Patients improved or with no change in NYHA class compared with placebo (baseline to 52 weeks, type 2 diabetes): more patients treated with semaglutide improved or observed no change in NYHA class
More wins on semaglutide as compared to placebo (hierarchical composite endpoint, type 2 diabetes): 59%
Hierarchical composite endpoint, Loss: All-cause death [1]: 1.9%
Hierarchical composite endpoint, Loss: Change in 6MWD ≥30 meters difference [1]: 4.1%
Hierarchical composite endpoint, Loss: Change in KCCQ-CSS ≥5 points difference [1]: 6.2%
Hierarchical composite endpoint, Loss: Change in KCCQ-CSS ≥10 points difference [1]: 5.0%
Hierarchical composite endpoint, Loss: Change in KCCQ-CSS ≥15 points difference [1]: 18.2%
Hierarchical composite endpoint, Loss: Number of HF events [1]: 1.2%
Hierarchical composite endpoint, Loss: Time-to-first HF event [1]: 0.0%
Hierarchical composite endpoint, Loss: Total [1]: 36.8%
Hierarchical composite endpoint, Proportion of ties [1]: Proportion of ties: 4.5%
Hierarchical composite endpoint, Wins: All-cause death [1]: 2.9%
Hierarchical composite endpoint, Wins: Change in 6MWD ≥30 meters difference [1]: 4.9%
Hierarchical composite endpoint, Wins: Change in KCCQ-CSS ≥5 points difference [1]: 7.3%
Hierarchical composite endpoint, Wins: Change in KCCQ-CSS ≥10 points difference [1]: 6.6%
Hierarchical composite endpoint, Wins: Change in KCCQ-CSS ≥15 points difference [1]: 32.3%
Hierarchical composite endpoint, Wins: Number of HF events [1]: 4.7%
Hierarchical composite endpoint, Wins: Time-to-first HF event [1]: 0.0%
Hierarchical composite endpoint, Wins: Total [1]: 58.7%
Observed KCCQ-CSS mean change from baseline [2]: 0
Observed body weight (%) mean change from baseline [2]: 0%
Observed six minutes walk distance mean change from baseline [2]: 0 meters
Observed body weight (%) mean change from baseline (week 4, dose escalation to 2.4 mg once weekly, type 2 diabetes): −1.8%
Observed body weight (%) mean change from baseline (week 8, dose escalation to 2.4 mg once weekly, type 2 diabetes): −3.1%
Observed body weight (%) mean change from baseline (week 12, dose escalation to 2.4 mg once weekly, type 2 diabetes): −4.5%
Observed body weight (%) mean change from baseline (week 16, dose escalation to 2.4 mg once weekly, type 2 diabetes): −5.8%
Observed KCCQ-CSS mean change from baseline [3]: 11.1
Observed body weight (%) mean change from baseline [3]: −6.6%
Observed six minutes walk distance mean change from baseline [3]: 23.0 meters
Observed body weight (%) mean change from baseline (week 28, 2.4 mg once weekly, type 2 diabetes): −8.0%
Observed KCCQ-CSS mean change from baseline [4]: 14.2
Observed body weight (%) mean change from baseline [4]: −9.1%
Observed body weight (%) mean change from baseline (week 44, 2.4 mg once weekly, type 2 diabetes): −9.8%
Body weight (%) change from baseline to week 52, Treatment difference vs. placebo [5]: −6.4%
Improvement of ≥5 points in KCCQ-CSS, Treatment Odds ratio vs. placebo [5]: 2.29
Improvement of ≥10 points in KCCQ-CSS, Treatment Odds ratio vs. placebo [5]: 2.06
KCCQ-CSS change from baseline to week 52, Treatment difference vs. placebo [5]: 7.3 score
Six minutes walk distance change from baseline to week 52, Treatment difference vs. placebo [5]: 14.3 meters
Body weight (%) change from baseline to week 52, Treatment difference vs. placebo [6]: significantly larger body weight loss
KCCQ-CSS change from baseline to week 52, Treatment difference vs. placebo [6]: significantly larger improvement in KCCQ-CSS
Six minutes walk distance change from baseline to week 52, Treatment difference vs. placebo [6]: significantly larger improvement in six minutes walk distance
NYHA class from baseline to week 52: Improvement [7]: 33.9%
NYHA class from baseline to week 52: No change [7]: 63.7%
NYHA class from baseline to week 52: Worsening [7]: 2.4%
Observed KCCQ-CSS mean change from baseline [7]: 14.4
Observed body weight (%) mean change from baseline [7]: −10.2%
Observed proportion improving ≥5 points from baseline in KCCQ-CSS [7]: 73%
Observed proportion improving ≥10 points from baseline in KCCQ-CSS [7]: 58%
Observed six minutes walk distance mean change from baseline [7]: 18.6 meters
Body weight (%) change from baseline to week 52, Estimate [8]: −9.8%
KCCQ-CSS change from baseline to week 52, Estimate [8]: 13.7 score
Six minutes walk distance change from baseline to week 52, Estimate [8]: 12.7 meters
